From PMC13065080, “Discovery of a potent anti-Zika virus benzamide series targeting the viral protein NS4B” (PLOS Pathogens, 2026)
Like-named read-outs stand apart in the source and are kept apart here.

Tests used:
ZIKV PLCal [1] = experiment: CPE-based anti-ZIKV concentration-response assay (96-well); type: cell-based, Zika virus
ZIKV-RLuc = experiment: microbe, parasite or virus in culture; type: cell-based, Zika virus
ZIKV PLCal [2] = experiment: Virus yield (titer) reduction assay in Huh 7.5.1 cells; type: cell-based, Zika virus; conditions: 1 µM
ZIKV-RLuc NS4B V241L = type: cell-based, Zika virus
ZIKV-RLuc NS4B A245T = type: cell-based, Zika virus
ZIKV-RLuc NS4B V248G = type: cell-based, Zika virus
in vitro = conditions: African green monkey, CC50 Vero76
DENV NS4B = target: T1, DENV NS4B (Dengue virus type 3, UniProt P27915); experiment: 19F-NMR binding, DENV NS4B; conditions: compound 50 µM, NS4B 5 µM
T1 construct: Overlaid ^19F-NMR spectra of JNJ-1802 in absence (blue) and presence of DENV NS4B (red)

CHIKV = experiment: microbe, parasite or virus in culture; type: cell-based; conditions: Vero 76; read-out: EC50-CPE CHIKV
ZIKV MR766 = experiment: microbe, parasite or virus in culture; type: cell-based; conditions: CPE-protection
ZIKV DAK-41525-MA = experiment: CPE-protection assay, ZIKV DAK-41525-MA; type: cell-based, Zika virus
ZIKV Ib H30656 = experiment: microbe, parasite or virus in culture; type: cell-based; conditions: CPE-protection
ZIKV FLR = experiment: microbe, parasite or virus in culture; type: cell-based; conditions: CPE-protection
ZIKV PRVABC59 = experiment: microbe, parasite or virus in culture; type: cell-based; conditions: CPE-protection
DENV Type 4 H241 = experiment: microbe, parasite or virus in culture; type: cell-based; conditions: CPE-protection; read-out: EC50 DENV Type 4 H241
YFV 17D = experiment: microbe, parasite or virus in culture; type: cell-based; conditions: CPE-protection
JEV SA-14 = experiment: CPE-protection assay, JEV; type: cell-based, Japanese encephalitis virus
WNV NY-99 = experiment: CPE-protection assay, WNV; type: cell-based, West Nile virus
ZIKV PLCal [3] = experiment: CPE-based phenotypic HTS assay (1536-well); type: cell-based, Zika virus; conditions: n = 10, uridine supplemented
Procedure: To begin, 600 cells at 2.5 μL/ well of Vero 76 cells in MEM-E supplemented with 10% FBS and 1X Antibiotic-Antimycotic (Gibco 15240-062) were dispensed to 1536 well plate (Aurora EBB0-40000A) and incubated at 37 °C in humidified incubators with 5% CO2 for 24 hours. After that, 30 nL of each compound or vehicle (75% DMSO) were transferred using pintool and further incubated for 2 hours. […] For the negative control wells (N = 24/plate), only virus dilution media was dispensed. Positive control wells contained virus and cells (N = 24/plate). After incubation at 37 °C in humidified incubators with 5% CO2 for 72 hours, plates were incubated for 10 minutes at room temperature, followed by dispensing 5 μL/well CellTiter Glo (Promega). Luminescent signal was detected using PHERAstar FSX (BMG Labtech).
In the primary screen, compounds were tested at a single concentration in singlicate at a final nominal concentration of 6.95 μM. Raw assay data was imported into UF Scripps’ corporate database and subsequently analyzed using Symyx software. Activity of each compound was calculated on a per-plate basis using the following equation: Percent Response of compound = 100*((Test Well-Median Data Wells)/ (Median High Control - Median Data Wells)). […]

[4] = Zika virus, Fig 7, read-out: CPE EC50
[5] = Zika virus, Vero 76, 72 h, wild type ZIKV-RLuc, Vero 76, MOI 0.1, three days, read-out: EC50 ZIKV-RLuc
[6] = Zika virus, Fig 7, read-out: RLuc EC50
[7] = Zika virus, 72 h, Vero 76, MOI 0.05, 3-day incubation, CellTiter-Glo, read-out: EC50-CPE ZIKV-PLCal
[8] = wild type ZIKV-RLuc, Vero 76, MOI 0.1, three days, read-out: EC50 ZIKV-RLuc
[9] = Vero 76, MOI 0.05, 3-day incubation, CellTiter-Glo, read-out: EC50-CPE ZIKV-PLCal

T1 sequence (P27915 2243-2490): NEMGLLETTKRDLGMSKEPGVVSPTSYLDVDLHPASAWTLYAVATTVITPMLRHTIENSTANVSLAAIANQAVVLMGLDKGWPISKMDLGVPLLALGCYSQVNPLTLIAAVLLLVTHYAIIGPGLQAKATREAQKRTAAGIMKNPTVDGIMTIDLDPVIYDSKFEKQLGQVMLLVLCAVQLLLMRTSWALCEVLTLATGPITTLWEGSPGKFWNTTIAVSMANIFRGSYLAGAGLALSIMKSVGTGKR

Row | SMILES | EC50 (ZIKV PLCal [1]; [4]) [µM] | EC50 (ZIKV-RLuc; [5]) [µM] | EC50 (ZIKV-RLuc; [6]) [µM] | VYR: Virus Yield reduction (Log 10) (ZIKV PLCal [2]) | EC50 (ZIKV-RLuc NS4B V241L) [µM] | EC50 (ZIKV-RLuc NS4B A245T) [µM] | EC50 (ZIKV-RLuc NS4B V248G) [µM] | CC50 (in vitro) [µM] | EC50 (ZIKV-RLuc; [8]) [µM] | EC50 (ZIKV PLCal [1]; [9]) [µM] | CC50 (Vero76) [µM] | further results
1 | CC(C)(C)c1ccc(C(=O)NC2CC3CCC2C3)cc1 (centres unmarked) [MWAC-3508] | 0.36 | 0.11 ± 0.002 | 0.15 | -0.93 ± 0.07 | 13.2 ± 1.87 | 0.81 ± 0.11 | 4.37 ± 0.37 | > 50 |  |  |  | 
2 | CC(C)(C)c1ccc(C(=O)NC2CCCCCC2)cc1 [MWAC-4001, 4-(tert-butyl)-N-cycloheptylbenzamide] | 0.09 | 0.04 ± 0.006 | 0.05 | -2.68 ± 0.36 | 24 | 1.07 ± 0.16 | 10.1 ± 0.81 | 12 |  |  |  | Fold-change of EC50, Wt (ZIKV-RLuc; ZIKV RLuc assay, reference): 1; Fold-increase / fold-change of EC50, NS4B V241L vs wild type (ZIKV-RLuc NS4B V241L): 564.2; Fold-increase / fold-change of EC50, NS4B A245T vs wild type (ZIKV-RLuc NS4B A245T): 25.1; Fold-increase / fold-change of EC50, NS4B V248G vs wild type (ZIKV-RLuc NS4B V248G): 238.2
3 | CC(C)(C)c1ccc(C(=O)N[C@@H]2C[C@H]3CC[C@@H]2C3)cc1 (relative stereo) [MWAC-3989, N-((exo)-bicyclo[2.2.1]heptan-2-yl)-4-(tert-butyl)benzamide] | 0.34 | 0.07 ± 0.007 | 0.115 | -0.18 ± 0.14 | 10.6 ± 2.04 | 0.45 ± 0.05 | 4 ± 0.76 | > 50 | 0.13 ± 0.068 |  |  | EC50 (ZIKV PLCal [1]; [7]): 0.46 ± 0.1 µM
4 | CCc1ccc(C(=O)NC2CC3CCC2C3)cc1 (stereo not drawn) [MWAC-3996, N-((exo)-bicyclo[2.2.1]heptan-2-yl)-4-ethylbenzamide] |  |  |  |  |  |  |  |  | 4.88 ± 1.36 | 27.1 ± 16.8 | > 50 | 
5 | CC(C)(O)c1ccc(C(=O)NC2CC3CCC2C3)cc1 (stereo not drawn) [MWAC-3995, N-((exo)-bicyclo[2.2.1]heptan-2-yl)-4-(2-hydroxypropan-2-yl)benzamide] |  |  |  |  |  |  |  |  | 13.9 | 39 | > 50 | 
6 | COC(C)(C)c1ccc(C(=O)NC2CC3CCC2C3)cc1 (stereo not drawn) [MWAC-3998, N-((exo)-bicyclo[2.2.1]heptan-2-yl)-4-(2-methoxypropan-2-yl)benzamide] |  |  |  |  |  |  |  |  | 0.76 ± 0.05 | 2.72 ± 1.24 | > 50 | 
7 | COc1cc(N[C@H](C(=O)c2c[nH]c3ccc(OC(F)(F)F)cc23)c2ccc(Cl)cc2OC)cc(S(C)(=O)=O)c1 [JNJ-1802] |  |  |  |  |  |  |  |  |  |  |  | 19F-NMR spectrum change with DENV NS4B (DENV NS4B): a chemical shift perturbation and significant line broadening was seen
8 | CC(C)(C)c1ccc(C(=O)NC2CCOC2)cc1 (centres unmarked) [MWAC-3509] |  | 6.1 |  |  |  |  |  | > 50 |  |  |  | EC50 (ZIKV PLCal [1]; [7]): 18 µM
9 | C#C[C@@]1(O)[C@H](O)[C@@H](CO)O[C@H]1n1ccc2c(N)ncnc21 [NITD-008, reference compound] |  |  |  |  |  |  |  |  | 0.31 ± 0.13 | 0.36 ± 0.27 | 19 ± 10.3 | EC50 (CHIKV): > 50 µM; EC50 (ZIKV MR766): 1.76 ± 0.2 µM; EC50 (ZIKV DAK-41525-MA): 0.89 ± 0.22 µM; EC50 (ZIKV Ib H30656): 1.43 ± 0.23 µM; EC50 (ZIKV FLR): 1.24 ± 0.09 µM; EC50 (ZIKV PRVABC59): 0.69 ± 0.11 µM; EC50 (DENV Type 4 H241): 0.18 ± 0.12 µM; EC50 (YFV 17D): 0.27 ± 0.12 µM; EC50 (JEV SA-14): 1.85 ± 1.1 µM; EC50 (WNV NY-99): 3 ± 2.5 µM; EC50 (ZIKV-RLuc NS4B V241L; ZIKV RLuc assay): 0.76 µM; Fold-increase / fold-change of EC50, NS4B V241L vs wild type (ZIKV-RLuc NS4B V241L; ZIKV RLuc assay): 3.44; EC50 (ZIKV-RLuc NS4B A245T; ZIKV RLuc assay): 0.28 µM; Fold-increase / fold-change of EC50, NS4B A245T vs wild type (ZIKV-RLuc NS4B A245T; ZIKV RLuc assay): 1.29; EC50 (ZIKV-RLuc NS4B V248G; ZIKV RLuc assay): 0.2 µM; Fold-increase / fold-change of EC50, NS4B V248G vs wild type (ZIKV-RLuc NS4B V248G; ZIKV RLuc assay): 0.93; EC50 (ZIKV PLCal [3]): 0.8 ± 0.037 µM
10 | CC(C)(C)c1ccc(C(=O)N[C@H]2C[C@H]3CC[C@@H]2C3)cc1 (relative stereo) [MWAC-3992, N-((endo)-bicyclo[2.2.1]heptan-2-yl)-4-(tert-butyl)benzamide] | 0.94 | 0.34 ± 0.018 | 0.58 | -1.20 ± 0.09 | 27.5 | 2.77 ± 0.31 | 16.8 ± 2.54 | 63 |  |  |  | 
